Reference: US20020028809A1 (SUNTORY LIMITED, priority 1999, published 2002)

target: T1, human α4β2 subtype of nicotinic acetylcholine receptors (Homo sapiens, UniProt P17787+P43681); assay: Agonist activities at human α4β2 subtype of nicotinic acetylcholine receptors expressed in Xenopus oocytes (membrane potential holding method); type: cell-based; details: not given
T1 construct: expressed in transfected cells; host or cells: Xenopus laevis oocytes injected with 50 ng each of α4 and β2 cRNA (pSP64 polyA vector)
Description: Agonist effect in human α4β2 subtype of nicotinic acetylcholine receptors are examined by using human nicotinic acetylcholine receptors prepared in oocytes of Xenopus laevis, which is injected with cRNA from the corresponding cloning cDNA of human α4 and β2 subunits of nicotinic acetylcholine receptors, and to measure the expression of electric response by adding the test compounds to perfusion solution by means of membrane potential holding method.
Agonist Activities at Human α4β2 Subtype of Nicotinic Acetylcholine Receptors
(1) Preparation of cRNA of Human α4β2 Subtype of Nicotinic Acetylcholine Receptors
Obtained hnACh-R α4 cDNA and hnACh-R β2 cDNA were inserted to the cRNA expression vector (pSP64 polyA) having SP6 RNA promoter to construct hnACh-R α4/pSP64 polyA and hnACh-R β2/pSP64 polyA, respectively. After cutting from expression vector by restriction enzyme (EcoRI), transcription was performed by affecting SP6 RNA polymerase in the presence of cap analogues to obtain hnACh-R α4 cRNA and hnACh-R β2 cRNA, respectively.
(2) Expression of Human α4β2 Subtype Nicotinic Acetylcholine Receptors in Xenopus oocytes
Oocytes were purchased from Kitanihonseibutsukyohzai Co., Ltd., which were already enucleated from Xenopus laevis, and used in this experiment.
The oocytes were treated with collagenase (Sigma type I; 1 mg/ml) in calcium-free modified Birth's solution (88 mM of NaCl, 1 mM of KCl, 2.4 mM of NaHCO3, 0.82 mM of MgSO4, 15 mM of HEPES, pH 7.6) under gently stirring at room temperature for 90 minutes, and washed out the enzyme from the tissue. Then, oocytes were separated from ovarian follicle by tweezers, and isolated oocytes were placed in antibiotics containing modified Birth's solution (88 mM of NaCl, 1 mM of KCl, 2.4 mM of NaHCO3, 0.82 mM of MgSO4, 15 mM of HEPES, pH 7.6, and 0.1 v/v% of mixture solution containing of penicillin and streptomycin for incubation; Sigma Co.). […] In oocytes, heterogeneous quintuple [(α4)2(β2)3] was composed by translation of injected cRNAs, and ion channel receptors were constructed on cell membrane.
(3) Agonist Activities at Human α4β2 Subtype of Nicotinic Acetylcholine Receptors
Recordings of response at human α4β2 subtype of nicotinic acetylcholine receptors by means of membrane potential holding method were performed as follow. […] Test compounds were added to the perfusion solution, and recorded the peak strength of induced inward current. In order to normalize the response of test compounds, the response with acetylcholine (Ach) were recorded before and after application of the test compounds. Generally in the oocytes just after isolated, the response of intrinsic muscarinic acetylcholine receptors, which is inward electric current caused by activation of calcium dependence chloride ion channels with increase of the intracellular calcium concentration by stimulation of receptors, is observed. […] Therefore, the responses observed in oocytes with injection of hnACh-R α4 cRNA and hnACh-R β2 cRNA, i.e., the inward current induced by the intracellular influx of sodium ion according to the stimulation of receptors, would be the freshly observed responses of human α4β2 subtype nicotinic acetylcholine receptors.

T1 sequence (P43681 29-627 limits assumed): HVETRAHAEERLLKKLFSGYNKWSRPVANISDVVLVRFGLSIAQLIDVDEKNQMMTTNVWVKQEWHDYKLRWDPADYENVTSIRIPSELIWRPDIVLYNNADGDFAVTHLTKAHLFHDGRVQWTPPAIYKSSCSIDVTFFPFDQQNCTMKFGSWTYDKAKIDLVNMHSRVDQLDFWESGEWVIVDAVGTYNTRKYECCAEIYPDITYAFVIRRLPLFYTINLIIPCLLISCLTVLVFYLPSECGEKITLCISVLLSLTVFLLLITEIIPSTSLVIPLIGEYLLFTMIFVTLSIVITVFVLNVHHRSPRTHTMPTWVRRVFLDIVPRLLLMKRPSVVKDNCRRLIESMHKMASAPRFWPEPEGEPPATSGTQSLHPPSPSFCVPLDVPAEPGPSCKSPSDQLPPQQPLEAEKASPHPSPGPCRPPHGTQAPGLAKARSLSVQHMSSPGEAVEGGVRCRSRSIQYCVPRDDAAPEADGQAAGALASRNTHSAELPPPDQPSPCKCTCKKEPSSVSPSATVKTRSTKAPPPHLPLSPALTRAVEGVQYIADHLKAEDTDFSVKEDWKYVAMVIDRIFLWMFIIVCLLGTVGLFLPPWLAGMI
T1 sequence (P17787 26-502): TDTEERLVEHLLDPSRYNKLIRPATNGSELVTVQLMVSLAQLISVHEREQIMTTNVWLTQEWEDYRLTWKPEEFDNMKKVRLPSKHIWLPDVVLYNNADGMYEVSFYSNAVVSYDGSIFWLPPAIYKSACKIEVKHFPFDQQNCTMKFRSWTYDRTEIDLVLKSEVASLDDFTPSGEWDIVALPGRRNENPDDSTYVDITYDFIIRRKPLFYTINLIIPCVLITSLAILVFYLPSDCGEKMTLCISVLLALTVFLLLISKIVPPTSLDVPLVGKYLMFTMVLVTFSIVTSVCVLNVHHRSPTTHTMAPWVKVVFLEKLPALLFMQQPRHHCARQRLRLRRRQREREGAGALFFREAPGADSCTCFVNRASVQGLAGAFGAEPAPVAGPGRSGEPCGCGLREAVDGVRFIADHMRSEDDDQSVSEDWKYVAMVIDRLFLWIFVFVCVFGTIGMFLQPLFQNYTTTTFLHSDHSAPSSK

**Q.** For `N=C1CCCN1Cc1ccc(Cl)nc1` [Compound 14, 1-(6-Chloro-3-pyridyl)methyl-2-iminopyrrolidine], which EC50 is on record?
**A.** 27.1 µM

same assay, conditions: 100 μM test compound, in comparison with the response at 10 μM acetylcholine (100%); read-out: Agonist activity: control % by response at 100 μM of the test compound

**Q.** With `N=C1SCCN1Cc1ccc(Cl)nc1` [Compound 5, 3-(6-chloro-3-pyridyl)methyl-2-iminothiazolidine] as the compound, how does the Emax at 100 µM read?
**A.** 4.9%

**Q.** Which Emax at 100 µM does the source give for `N=c1ccccn1Cc1ccc(Cl)nc1` [Compound 7, 1-(6-chloro-3-pyridyl)methyl-2-imino-1,2-dihydropyridine] here?
**A.** 16%

**Q.** With `Nc1nccn1Cc1cccnc1` [Compound 55, 2-amino-i-(3-pyridyl)methylimidazole] as the compound, how does the Emax at 100 µM read?
**A.** 17%

same assay, conditions: Xenopus oocytes expressing human α4β2, held at −50 mV, peak inward current; read-out: Agonist activity (ED50)

**Q.** For `N=c1sccn1Cc1ccc(Cl)nc1` [Compound 8, 3-(6-chloro-3-pyridyl)methyl-2-imino-2,3-dihydrothiazole], which EC50 is on record?
**A.** 4.2 µM

**Q.** How did the EC50 turn out when `Nc1nccn1Cc1ccc(Cl)nc1` [Compound 9, 2-amino-1-(6-chloro-3-pyridyl)methylimidazole] was run?
**A.** 92 µM

**Q.** For `N=C1NCCN1Cc1ccc(Cl)nc1` [Compound 13, 1-(6-Chloro-3-pyridyl)methyl-2-iminoimidazolidine], which EC50 is on record?
**A.** 14.7 µM

same assay, conditions: read-out: Agonist activity: control % by response at 100 μM of the test compound

**Q.** How did the Emax at 100 µM turn out when `N=c1sccn1Cc1ccc(Br)nc1` [Compound 11, 3-(6-bromo-3-pyridyl)methyl-2-imino-2,3-dihydrothiazole] was run?
**A.** 47%

**Q.** With `N=c1sccn1Cc1ccc(F)nc1` [Compound 12, 3-(6-fluoro-3-pyridyl)methyl-2-imino-2,3-dihydrothiazole] as the compound, how does the Emax at 100 µM read?
**A.** 21%

**Q.** For `N=C1SCCN1Cc1ccc(Cl)cc1` [Compound 31, 3-(4-chlorobenzyl)-2-iminothiazolidine], which Emax at 100 µM is on record?
**A.** 4%

**Q.** Which Emax at 100 µM does the source give for `N=C1SCCN1Cc1ccnnc1` [Compound 33, 2-imino-3-(4-pyridazinyl)methylthiazolidine] here?
**A.** 6%

**Q.** For `N=C1SCCN1Cc1cnc(Cl)s1` [Compound 34, 3-(2-chloro-5-thiazolyl)methyl-2-iminothiazolidine], which Emax at 100 µM is on record?
**A.** 13%

**Q.** Which Emax at 100 µM does the source give for `N=c1ccc(-c2ccccc2)nn1Cc1ccc(Cl)nc1` [Compound 44, 2-(6-chloro-3-pyridyl)methyl-3-imino-6-phenyl-2,3-dihydropyridazine] here?
**A.** 10%
